Experimental findings from patent US20230279020A9, “CARM1 INHIBITORS AND USES THEREOF” (Epizyme, Inc., priority 2013, published 2023) are described below.

Molecules are shown by their SMILES. Some results are limits rather than exact numbers.

What is called IC50 is the concentration needed to halve the response being measured.

For one test, the target named is Human CARM1 (PRMT4) (Homo sapiens (Human), UniProt Q86X55). The test can be described thus: CARM1 enzyme assay on peptide substrate (3H-SAM Flashplate). As to conditions: Biochemical potencies, classification codes; read-out: Biochem IC50.
Sequence of Human CARM1 (PRMT4) (Q86X55 other isoform, or with tags, fused parts or gaps isoform Q86X55-1): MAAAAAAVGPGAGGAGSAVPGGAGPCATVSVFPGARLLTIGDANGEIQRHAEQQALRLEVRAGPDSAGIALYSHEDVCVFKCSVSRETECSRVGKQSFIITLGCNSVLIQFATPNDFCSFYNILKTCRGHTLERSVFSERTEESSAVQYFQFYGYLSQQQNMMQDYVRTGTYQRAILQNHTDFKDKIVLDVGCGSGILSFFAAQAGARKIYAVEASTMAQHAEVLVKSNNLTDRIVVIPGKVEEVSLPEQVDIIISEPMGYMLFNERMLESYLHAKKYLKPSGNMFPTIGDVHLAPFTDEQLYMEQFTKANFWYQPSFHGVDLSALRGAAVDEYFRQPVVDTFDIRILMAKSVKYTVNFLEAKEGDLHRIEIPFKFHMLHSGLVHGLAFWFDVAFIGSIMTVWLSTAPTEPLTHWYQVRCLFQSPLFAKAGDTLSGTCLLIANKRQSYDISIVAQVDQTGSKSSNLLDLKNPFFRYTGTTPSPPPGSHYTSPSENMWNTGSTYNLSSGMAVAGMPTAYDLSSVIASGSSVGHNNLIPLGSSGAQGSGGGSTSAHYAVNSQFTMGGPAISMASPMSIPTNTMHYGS
Test [1] has as its system asymmetric di-methyl PABP1 in RKO cells. The test can be described thus: RKO methylation assay, In Cell Western (ICW) for asymmetric di-methyl PABP1. It is filed as cell-based. The conditions noted are these: Cellular potencies, PABP1me2a ICW. From the text:
RKO adherent cells were purchased from ATCC (American Type Culture Collection), Manassas, Va., USA. DMEM/Glutamax medium, penicillin-streptomycin, heat inactivated fetal bovine serum, 0.05% trypsin and D-PBS were purchased from Life Technologies, Grand Island, N.Y., USA. Odyssey blocking buffer, 800CW goat anti-rabbit IgG (H+L) antibody, and Licor Odyssey infrared scanner were purchased from Licor Biosciences, Lincoln, Nebr., USA. Asymmetric di-methyl PABP1 antibody was purchased from Cell Signaling Technology, Danvers, Mass., USA. Methanol was purchased from VWR, Franklin, Mass., USA. 10% Tween 20 was purchased from KPL, Inc., Gaithersburg, Md., USA. Paraformaldehyde (PFA) was purchased from EM Sciences. DRAQ5 was purchased from Biostatus Limited, Leicestershire, UK.
RKO adherent cells were maintained in growth medium (DMEM/Glutamax medium supplemented with 10% v/v heat inactivated fetal bovine serum and 100 units/mL penicillin-streptomycin) and cultured at 37° C. under 5% CO2.
Cell treatment, In Cell Western (ICW) for detection of asymmetric di-methyl PABP1 and DNA content: RKO cells were seeded in assay medium at a concentration of 30,000 cells per mL to a poly-D-lysine coated 384 well culture plate (BD Biosciences 356697) with 50 μL per well. Compound (100 nL) from a 96-well source plate was added directly to 384 well cell plate. Plates were incubated at 37° C., 5% CO2 for 48 hours. After two days of incubation, plates were brought to room temperature outside of the incubator for ten minutes and blotted on paper towels to remove cell media. Cells were fixed for 20 minutes at room temperature by adding 50 ul of 8% PFA followed by aspiration of supernatant with the Biotek EL406 plate washer. Cells were then permeabilized by addition of 50 μL of ice cold 100% methanol directly to each well and incubated for 30 min at room temperature. After 30 min, plates were transferred to a Biotek EL406 plate washer and washed 2 times with 100 μL per well of wash buffer (1×PBS). Next 60 μL per well of Odyssey blocking buffer (Odyssey Buffer with 0.1% Tween 20 (v/v)) were added to each plate and incubated 1 hour at room temperature. Blocking buffer was removed and 20 μL per well of primary antibody was added (asymmetric-methyl PABP1) diluted 1:400 in Odyssey buffer with 0.1% Tween 20 (v/v)) and plates were incubated overnight (16 hours) at 4° C. Plates were washed 5 times with 100 μL per well of wash buffer. Next 20 μL per well of secondary antibody was added (1:800 800CW goat anti-rabbit IgG (H+L) antibody, 1:2000 DRAQ5 in Odyssey buffer with 0.1% Tween 20 (v/v)) and incubated for 1 hour at room temperature. The plates were washed 5 times with 100 μL per well wash buffer then 2 times with 100 μL per well of water. Plates were allowed to dry at room temperature then imaged on the Licor Odyssey machine which measures integrated intensity at 700 nm and 800 nm wavelengths. Both 700 and 800 channels were scanned.
First, the ratio for each well was determined by:
Each plate included fourteen control wells of DMSO only treatment (minimum inhibition) as well as fourteen control wells for maximum inhibition treated with 20 μM of a reference compound. The average of the ratio values for each control type was calculated and used to determine the percent […] for each test well in the plate. Reference compound was serially diluted three-fold in DMSO for a total of nine test concentrations, beginning at 20 μM.
Percent inhibition was determined and IC50 curves were generated using triplicate wells per concentration of compound.

In the next test the test system is NCI-H929. In words: Human myeloma cell line 14-day proliferation assay (NCI-H929). Type of test: cell-based. The conditions noted are these: NCI-H929 Human Multiple Myeloma cell line, varying doses, FIG. 1A. The protocol: (§1) Human Multiple Myeloma cell lines NCI-H929 (FIG. 1A) and U266B1 (FIG. 1B) were treated with varying doses of 304-1a (medium grey data points), 23-3 (light grey data points), and 113-3 (black data points) in a 14-day proliferation assay. At the end of the experiment, total cell number was determined for each cell line for different doses of 304-1a, 23-3, and 113-3.

The next test relates to U266B1. In words: Human myeloma cell line 14-day proliferation assay (U266B1). Type of test: cell-based. The conditions noted are these: U266B1 Human Multiple Myeloma cell line, varying doses, FIG. 1B. The protocol: as §1

In the case of `CNCC(O)COc1cccc(-c2nc(-c3c(C)noc3C)cc(N3C[C@@H]4C[C@H]3CN4C(=O)OC)n2)c1` (some centres unmarked) [Example 105-1a], the IC50 is less than 0.1 µM on Human CARM1 (PRMT4) and 5 to 10 µM in test [1].

As to `CCOC(=O)N1CCOC[C@@H]1CNc1nc(-c2cc(OC[C@H](O)CNC)ccc2Cl)nc(-c2c(C)noc2C)c1C` [Example 23-3], the IC50 on Human CARM1 (PRMT4) was less than 0.1 µM. Besides, the “cell proliferation (total cell number)” value with NCI-H929 and with U266B1 was “decreased the proliferation” each time.

`CCS(=O)(=O)n1cc(-c2cc(N(C)C3CCOCC3)nc(-c3cccc(OCC(O)CNC)c3)n2)c2cncnc21` (centres unmarked) [Example 484-1a] displayed an IC50 in test [1] (Homo sapiens, RKO) of less than 5 µM.

As for `CNCC(O)COc1cccc(-c2nc(-c3c(C)noc3C)c(C)c(N3CCO[C@H](CNC)C3)n2)c1` (some centres unmarked) [Example 129-1a], the IC50 at Human CARM1 (PRMT4) is less than 0.1 µM; in test [1] it was 10 to 20 µM.

Take `CNCC(O)COc1cccc(-c2nc(C3CCN(C(=O)N(C)C)[C@@H](C)C3)cc(N(C)C3CCOCC3)n2)c1` (some centres unmarked) [Example 509-1a]: the IC50 is 0.1 to 1 µM at Human CARM1 (PRMT4) and 5 to 10 µM in test [1] (Homo sapiens, RKO).

As for `CNC[C@@H](O)COc1cccc(-c2nc(N3CC4(CCNCC4)c4ccccc43)cc(N(C)C3CCOCC3)n2)c1` [Example 558-1a], the IC50 on Human CARM1 (PRMT4) is less than 0.1 µM; in test [1], 10 to 20 µM.

`CNCC(O)COc1cccc(-c2nc(NC3CCOC3=O)cc(-c3c(C)noc3C)n2)c1` (centres unmarked) [Example 24-1a] registered an IC50 in test [1] of 10 to 20 µM.

As to `CNC[C@@H](O)COc1ccc(Cl)c(-c2nc(-c3c(C)noc3C)c(C)c(N3Cc4cccnc4C3)n2)c1` [Example 113-3], at Human CARM1 (PRMT4), the IC50 is less than 0.1 µM. Moreover, the “cell proliferation (total cell number)” value with NCI-H929 and with U266B1 was “decreased the proliferation” each time.

Turning to `CNCC(O)COc1cccc(-c2nc(N[C@@H]3CCOC3)c(C)c(N3CCC(n4c(C)nnc4C)CC3)n2)c1` (some centres unmarked) [Example 390-1a], in test [1] (Homo sapiens, RKO), the IC50 was 5 to 10 µM.

In test [1] (Homo sapiens, RKO), `CNCC(O)COc1cccc(-c2nc(N[C@@H]3CCOC3)c(C)c(-c3ccc4nccn4c3)n2)c1` (some centres unmarked) [Example 445-1a] returned an IC50 of 10 to 20 µM.

As to `CNC[C@@H](O)COc1ccc(Cl)c(-c2nc(NC3CCN(C(=O)OC)CC3)c(Cl)c(-c3c(C)noc3C)n2)c1` [Example 304-1a], the IC50 on Human CARM1 (PRMT4) is less than 0.1 µM. Also, the “cell proliferation (total cell number)” value in the test on NCI-H929 and in the test on U266B1 was “decreased the proliferation” each time.

Regarding `CNCC(O)COc1cccc(-c2nc(NC3CCOC3=O)cc(-c3c(C)noc3C)n2)c1` (centres unmarked) [Example 23-1a], the IC50 at Human CARM1 (PRMT4) is less than 0.1 µM; in test [1] (Homo sapiens, RKO), 10 to 20 µM.
